Experimental data from patent US20250082633A1, “COMPOUNDS AND METHODS FOR MODULATING SPLICING” (REMIX THERAPEUTICS INC., priority 2021, published 2025).
pIC50: −log10 of the molar value. Where two headings read alike, the source gives them in different places.

How the values were obtained:
Type in all cases: cell-based
[1] = system: K562 cells; assay: Cell Titer Glo 2.0 cell viability assay; conditions: Homo sapiens, 500 cells/well, 72 hours
Experimental: Compounds described herein were screened for toxicity in K562 (human chronic myelogenous leukemia) and SH-SY5Y (human neuroblastoma) cells using a Cell Titer Glo 2.0 assay. • Promega CellTiter-Glo® 2.0 Cell Viability Assay (cat #G9241) • Corning 384-well TC-treated microplates (cat #3570) Cells were plated at 500 cells/well (K562 cells) in 45 μL of IMDM supplemented with 10% FBS in a 384-well opaque plate. Wells containing only medium were used as a blank control. Test compounds (e.g., compounds of Formula (I), (II), or (III)) were first serially diluted in DMSO then diluted 1:100 with IMDM+10% FBS. The final concentration of DMSO was 0.1% in each well. The cells were incubated for 72 hours at 37° C. and 5% CO2 before assaying with Cell Titer Glo 2.0 reagent.

[2] = system: Target C; assay: RT-qPCR splicing assay, gene panel, Target C canonical junction (CJ) mRNA; conditions: Homo sapiens; decrease in CJ mRNA levels; larger panel of genes; Table 3; read-out: Target C CJ IC50
Experimental: (§1) Compounds described herein were used to modulate RNA transcript abundance in cells. The expression of a target mRNA was measured by detecting the formation of an exon-exon junction in the canonical transcript (CJ). A compound mediated exon-inclusion event was detected by observing an increase in formation of a new junction with an alternative exon (AJ). Real-time qPCR assays were used to detect these splicing switches and interrogate the potency of various compounds towards different target genes. A high-throughput real time quantitative PCR (RT-qPCR) assay was developed to measure these two isoforms of the mRNA (CJ and AJ) for exemplary genes, such as HTT, SMN2, and MYB, together with a control housekeeping gene, GAPDH or GUSB or PPIA, used for normalization. Briefly, the A673 or K562 cell line was treated with various compounds described herein (e.g., compounds of Formula (I)). After treatment, the levels of the HTT, MYB, or SMN2 mRNA targets were determined from each sample of cell lysate by cDNA synthesis followed by qPCR.
(§2) The A673 cell line was cultured in DMEM with 10% FBS. Cells were diluted with full growth media and plated in a 96-well plate (15,000 cells in 100 ul media per well). The plate was incubated at 37° C. with 5% CO2 for 24 hours to allow cells to adhere. An 11-point 3-fold serial dilution of the compounds was made in DMSO then diluted in media in an intermediate plate. Compounds were transferred from the intermediate plate to the cell plate with the top dose at a final concentration of 10 uM in the well. Final DMSO concentration was kept at or below 0.25%. The cell plate was returned to the incubator at 37° C. with 5% CO2 for an additional 24 hours.
(§3) The K562 cell line was cultured in IMDM with 10% FBS. For K562, cells were diluted with full growth media and plated in either a 96-well plate (50,000 cells in 50 uL media per well) or a 384-well plate (8,000-40,000 cells in 45 uL media per well). An 11-point 3-fold serial dilution of the compounds were made in DMSO then diluted in media in an intermediate plate. Compound was transferred from the intermediate plate to the cell plate with the top dose at a final concentration of 10 uM in the well. Final DMSO concentration was kept at or below 0.25%. Final volume was 100 uL for 96-well plate and 50 uL for 384-well plate. The cell plate was then placed in an incubator at 37° C. with 5% CO2 for 24 hours.
(§4) The cells were then gently washed with 50 uL-100 uL cold PBS before proceeding to addition of lysis buffer. 30 uL-50 μL of room temperature lysis buffer with DNAse I (and optionally RNAsin) was added to each well. Cells were shaken/mixed thoroughly at room temperature for 5-10 minutes for lysis to take place and then 3 uL-5 μL of room temperature stop solution was added and wells were shaken/mixed again. After 2-5 minutes, the cell lysate plate was transferred to ice for RT-qPCR reaction setup. The lysates could also be frozen at −80° C. for later use.
(§5) In some cases, a direct lysis buffer was used. An appropriate volume of 3× lysis buffer (10 mM Tris, 150 mM NaCl, 1.5%-2.5% Igepal and 0.1-1 U/uL RNAsin, pH 7.4) was directly added to either K562 or A673 cells in media and mixed by pipetting 3 times. The plates were then incubated at room temperature with shaking/rocking for 20-50 minutes to allow for lysis to take place. After this time, the cell lysate plate was transferred to ice to set up for the RT-qPCR reactions. The lysates could also be frozen at −80° C. for later use.
(§6) To set up 10 uL RT-qPCR reactions, cell lysates were transferred to 384-well qPCR plates containing the master mix according to the table below. The plates were sealed, gently vortexed, and spun down before the run. The volumes were adjusted accordingly in some instances where the reaction was carried in 20 μL. The table below summarizes the components of the RT-qPCR reactions:
(§7) The RT-qPCR reaction was performed using a QuantStudio (ThermoFisher) under the following fast cycling conditions. […]

[3] = system: SMN2 mRNA; assay: RT-qPCR splicing assay, gene panel, SMN2 canonical junction (CJ) mRNA; conditions: Homo sapiens; decrease in CJ mRNA levels; larger panel of genes; Table 3; read-out: SMN2 CJ IC50
Experimental: as §1, §2, §3, §4, §5, §6, §7

[4] = system: MYB mRNA; assay: RT-qPCR splicing assay, MYB canonical (CJ) and alternative (AJ) junction mRNA; conditions: Homo sapiens; for pIC50: read-out: MYB CJ IC50; for AC50: increase in alternative junction mRNA, read-out: MYB AJ AC50
Experimental: as §1
(§8) • Cells-to-CT 1-step kit: ThermoFisher A25602, Cells-to-CT lysis reagent: ThermoFisher 4391851C, TaqMan™ Fast Virus 1-Step Master Mix: ThermoFisher 4444436 • GAPDH: VIC-PL, ThermoFisher 4326317E (Assay: Hs99999905_m1)—used for K562/suspension cell lines • GUSB: VIC-PL, ThermoFisher 4326320E (Assay: Hs99999908_m1)—used for K562/suspension cell lines • PPIA: VIC-PL, ThermoFisher 4326316E (Assay: Hs99999904_m1)—used for A673/adherent cell lines
as §2, §3, §4
as §5, with “use. […]” for “use.”

[5] = system: HTT mRNA; assay: RT-qPCR splicing assay, HTT canonical (CJ) and alternative (AJ) junction mRNA; conditions: Homo sapiens; for pIC50: read-out: HTT CJ IC50; for AC50: increase in alternative junction mRNA, read-out: HTT AJ AC50
Experimental: as §1, §8, §2, §3, §4
as §5, with “use. […]” for “use.”

[6] = decrease in CJ mRNA levels, larger panel of genes, Table 3
[7] = decrease in canonical junction mRNA, A673 or K562 cells, 24 hours treatment, Table 2
[8] = A673 or K562 cells, 24 hours treatment, Table 2

| Structure (SMILES) | GI50 [1] [nM] | pIC50 [2] | pIC50 [3] | pIC50 [4, 6] | pIC50 [4, 7] | AC50 [4, 8] [nM] | pIC50 [5, 6] | pIC50 [5, 7] | AC50 [5, 8] [nM] |
| --- | --- | --- | --- | --- | --- | --- | --- | --- | --- |
| Cc1cn2nc(-c3cc(F)c4nn(C5CCNC6(CC6)C5)cc4c3)cc2c(C)n1 (stereo in doubt) [Compound 205, 2-[2-[(7S)-4-azaspiro[2.5]octan-7-yl]-7-fluoro-indazol-5-yl]-4,6-dimethyl-pyrazolo[1,5-a]pyrazine] | 1000 to 10000 | 5.00 to 6.00 | 6.00 to 7.00 | 5.00 to 6.00 | 5.00 to 6.00 | 100 to 1000 | 6.00 to 7.00 | 6.00 to 7.00 | 100 to 1000 |
| Cc1cn2nc(-c3cc(F)c4nn(C5CCNC6(CC6)C5)cc4c3)cc2c(C)n1 (stereo in doubt) [Compound 206, 2-[2-[(7R)-4-azaspiro[2.5]octan-7-yl]-7-fluoro-indazol-5-yl]-4,6-dimethyl-pyrazolo[1,5-a]pyrazine] | 100 to 1000 | 6.00 to 7.00 | 6.00 to 7.00 | 6.00 to 7.00 | 6.00 to 7.00 | 100 to 1000 | > 7.00 | > 7.00 | 100 to 1000 |
| Cc1cn2nc(-c3cc(F)c4nn([C@H]5CCN(C)C[C@@H]5F)cc4c3)cc(C)c2n1 [Compound 196, 6-[7-fluoro-2-[(3S,4S)-3-fluoro-1-methyl-4-piperidyl]indazol-5-yl]-2,8-dimethyl-imidazo[1,2-b]pyridazine] | > 10000 | < 5.00 | 6.00 to 7.00 | < 5.00 | < 5.00 | 1000 to 10000 | 5.00 to 6.00 | 5.00 to 6.00 | 1000 to 10000 |
| Cc1cn2nc(-c3cc(F)c4nn([C@@H]5CCN(C)C[C@H]5F)cc4c3)cc(C)c2n1 [Compound 197, 6-(7-fluoro-2-((3R,4R)-3-fluoro-1-methylpiperidin-4-yl)-2H-indazol-5-yl)-2,8-dimethylimidazo[1,2-b]pyridazine] | 1000 to 10000 | 5.00 to 6.00 | 6.00 to 7.00 | 5.00 to 6.00 | 5.00 to 6.00 | 1000 to 10000 | 6.00 to 7.00 | 6.00 to 7.00 | 100 to 1000 |
